Results on six compounds are retold here after patent publication EP2910242B1, “DURABLE […] SEBACOYL DI[…]-PLGA CONTROLLED RELEASE FORMULATION” (Hu, Oliver Yaopu, priority 2012, dated 2014).

Converted amounts (≈) assume the structure as drawn. Counter-ions that a name gives are not always drawn. Like-named read-outs stand apart in the source and are kept apart here.

Series [1] in a line: oil-in-water coefficient (logP).
Series [2] in a line: drug saturated solubility in water.
For series [3] the following is noted: subcutaneous injection of PLGA microspheres containing the drug; 50 mg/rabbit; cited from earlier work.

`O=C(CCCCCCCCC(=O)Oc1ccc2c3c1O[C@H]1[C@@H](O)CC[C@@]4(O)[C@@H](C2)N(CC2CCC2)CC[C@]314)Oc1ccc2c3c1O[C@H]1[C@@H](O)CC[C@@]4(O)[C@@H](C2)N(CC2CCC2)CC[C@]314` [Sebacoyl dinalbuphine ester] had a logP in series [1] of 3.15. In series [2], this compound had a solubility of less than 0.25 µg/mL.
Take `CCCCCCC(=O)Oc1ccc2c3c1O[C@H]1[C@@H](O)CC[C@@]4(O)[C@@H](C2)N(CC2CCC2)CC[C@]314` [Nalbuphine enanthate]: the logP in series [1] worked out at 1.94. The amount in solution in series [2] (solubility) came to 3 µg/mL (≈ 6.39 µM).
For `CC(C)(C)C(=O)Oc1ccc2c3c1O[C@H]1[C@@H](O)CC[C@@]4(O)[C@@H](C2)N(CC2CCC2)CC[C@]314` [Nalbuphine pivalate], in series [3], the “time the effective serum concentration lasted” value is 4 days. The logP in series [1] is 1.42. Also, the solubility in series [2] turned out to be 33.7 µg/mL (≈ 76.3 µM).
Regarding `Oc1ccc2c3c1O[C@H]1[C@@H](O)CC[C@@]4(O)[C@@H](C2)N(CC2CCC2)CC[C@]314` [Nalbuphine HCl], the solubility in series [2] (water) was more than 25000 µg/mL.
Turning to `CCCCCCCCCC(=O)Oc1ccc2c3c1O[C@H]1[C@@H](O)CC[C@@]4(O)[C@@H](C2)N(CC2CCC2)CC[C@]314` [Nalbuphine decanoate], the “time the effective serum concentration lasted” value in series [3] is recorded as 4 days. This compound came in with a logP in series [1] of 3.3. Moreover, in series [2], the solubility came out at 0.67 µg/mL (≈ 1.31 µM).
Regarding `CCC(=O)Oc1ccc2c3c1O[C@H]1[C@@H](O)CC[C@@]4(O)[C@@H](C2)N(CC2CCC2)CC[C@]314` [Nalbuphine propionate], the “time the effective serum concentration lasted” value in series [3] was 4 days. For the same compound, in series [1], the logP is 1.05. Also, the solubility in series [2] was determined as 44.7 µg/mL (≈ 108 µM).
